Here are results for two compounds from US20150051203A1, “TRIAZOLE DERIVATIVES AS HSP90 INHIBITORS” (Synta Pharmaceuticals Corp., priority 2012, published 2015).

Like-named read-outs stand apart in the source and are kept apart here.

The subject of one data set is Her2. As to the kind of experiment: Degradation of Her2 in BT-474 cells (Western blot, Method 1). In kind it is cell-based, Human. The settings on record: 0.5 μM, overnight. As to the method:
BT-474 cells are treated with 0.5 μM, 2 μM, or 5 μM of 17AAG (a positive control) or 0.5 μM, 2 μM, or 5 μM of a compound of the invention overnight in DMEM medium. After treatment, each cytoplasmic sample is prepared from 1×10^6 cells by incubation of cell lysis buffer (#9803, Cell Signaling Technology) on ice for 10 minutes. The resulting supernatant used as the cytosol fractions is dissolved with sample buffer for SDS-PAGE and run on a SDS-PAGE gel, blotted onto a nitrocellulose membrane by using semi-dry transfer. Non-specific binding to nitrocellulose is blocked with 5% skim milk in TBS with 0.5% Tween at room temperature for 1 hour, then probed with anti-Her2/ErB2 mAb (rabbit IgG, #2242, Cell Signaling) and anti-Tubulin (T9026, Sigma) as housekeeping control protein. HRP-conjugated goat anti-rabbit IgG (H+L) and HRP-conjugated horse anti-mouse IgG (H+L) are used as secondary Ab (#7074, #7076, Cell Signaling) and LumiGLO reagent, 20× Peroxide (#7003, Cell Signaling) is used for visualization.
BT-474 cells were treated with 0.5 μM, 2 μM, or 5 μM of 17AAG (a positive control) or 0.5 μM, 2 μM, or 5 μM of a compound of the invention overnight in DMEM medium. After treatment, each cytoplasmic sample was prepared from 1×10^6 cells by incubation of cell lysis buffer (#9803, Cell Signaling Technology) on ice for 10 minutes. […]

Data set [1] is described as follows: Caco-2 permeability assay. The settings on record: human. It is filed as in vitro ADME. How it is done:
Caco-2 cells were cultured on 24-well plates at 0.8×10^5 cells/cm^2 for approximately 20 days until TEER values were above 300 Ωcm^2. Caco-2 monolayers were rinsed twice with transport buffer (HBSS supplemented with 10 mM HEPES and 25 mM glucose, pH 7.4) and then pre-incubated for 30 min. Test and control compound solutions were loaded into the donor (A) or acceptor (B) compartments of a 24-well plate and incubated at 37° C. with 5% CO2 and 65% humidity for 2 h. For A to B permeability, the donor wells contained test compound and corresponding acceptor wells contained transport buffer. For B to A permeability, the […]. Atenolol and propranolol were used as low and high permeability compound controls, respectively. Digoxin was used was a P-gp substrate control. Cell viability was tested with Lucifer yellow at the end of the study.
Permeability was calculated as follows:
[formula] PappA to B={0.0005376×([Drug] Acceptor/[Drug] Initial)}
PappB to A={0.0001792×([Drug] Acceptor/[Drug] Initial)}
Polarization Ratio=PappB to A/PappA to B
Polarization ratio >2 considered as an efflux (P-gp) substrate.

Data set [2] is described as follows: Exploratory small molecule PK study in rats. In kind it is in vivo, male Sprague-Dawley rats. Further details: AUClast: unit not given here. The note with it: rat; for half-life: male, Sprague-Dawley, plasma, read-out: T½ (converted). As to the method:
PK studies were conducted in male Sprague-Dawley rats. One group was dosed by IV (n=2) and another group was dosed orally (n=3). Blood samples were collected in lithium heparin coated microfuge tubes at 5 (IV only), 15, 30 min, 1, 3, 4, 6, 8, 24 h post dose. Samples were then centrifuged under refrigerated conditions and plasma was collected for analysis.
A solvent-based protein precipitation procedure was used to measure the concentration of each compound in plasma and/or whole blood. Samples were analyzed with an Agilent 1100 HPLC (Santa Clara, Calif.) interfaced to an API 4000 tandem mass spectrometer (Applied Biosystems, Foster City, Calif.) using a Synergy, Hydro-RP column (4 μm, 2×50 mm; Phenomenex, Torrance, Calif.) at a flow rate of 0.5 ml/min. Mobile phase consisted of 10 mM ammonium acetate in water (A) and 10 mM ammonium acetate in 95/5 (v/v) methanol/water (B). Total run time was 5 min with the gradient elution. […] All standard curves were fit to a quadratic equation with a weighing factor of 1/(concentration)^2 to calculate compound concentrations.

Usually Papp A→B stands for how fast a substance crosses the layer from the apical side.

As for `C=CCNC1=C2C[C@@H](C)C[C@H](OC)[C@H](O)[C@@H](C)/C=C(\C)[C@H](OC(N)=O)[C@@H](OC)/C=C\C=C(/C)C(=O)NC(=CC1=O)C2=O` [Compound 17AAG, 17-allylamino-17-demethoxygeldanamycin], the “degradation of Her2” value with Her2 is “partial degradation of Her2”.

Regarding `CC(C)c1n[nH]c2cc(O)c(-c3nnc(C(=O)NCC(F)(F)F)n3-c3ccc(N4CCOCC4)cc3)cc12` [Compound 38, 5-(6-hydroxy-3-isopropyl-1H-indazol-5-yl)-4-(4-morpholinophenyl)-N-(2,2,2-trifluoroethyl)-4H-1,2,4-triazole-3-carboxamide], the Papp A→B at 2 h in data set [1] (A to B, 2 h, 37° C., pH 7.4) was found to be 12.4 ×10⁻⁶ cm/s. The efflux ratio at 2 h in data set [1] (pH 7.4, ratio >2 considered as an efflux (P-gp) substrate, read-out: Pol. Ratio B-A/A-B) is 2. Moreover, the half-life in data set [2] (IV 5 mg/Kg, DPD) is 2.3 h; in data set [2] (PO 25 mg/Kg, D5W) it was 10.7 h. The AUClast is listed as 2.6 in data set [2] (IV 5 mg/Kg, DPD) and 0.07 in data set [2] (PO 25 mg/Kg, D5W). In addition, the F in data set [2] (PO 25 mg/Kg D5W vs IV 5 mg/Kg DPD) turned out to be 0.52%.
